Test systems include ACHN; NCI-H460; SK-OV-3; UACC-257; NCI-H226; HCC 2998; RXF 393; EKVX; SK-MEL-2; SK-MEL-28; HOP-18; OVCAR-8; COLO 205; HL-60; HCT-116; SW-620; OVCAR-5; NCI/ADR-RES; MDA-MB-435; MDA-N.
What all share (assay): inhibition of tumour cell growth, NCI panel, 48 h

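These data come from cells grown in 96-well plates and exposed to compound for 48 hours at five concentrations. At the GI50, growth is halved.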 The source made the active and inactive calls. Rule as the data show it: active = GI50 up to about 1.1 µM and inactive = higher.

For `CC(C)CCC[C@@H](C)C1CCC2[C@@H]3CC=C4C[C@@H](OC(=O)CCC(=O)NCC[N+](C)(C)CCCS(=O)(=O)[O-])CC[C@]4(C)C3CC[C@@]21C` (some centres not stated), the GI50 in the assay with ACHN is 23.9 µM (inactive); with NCI-H460, 15.2 µM (inactive); in the assay on SK-OV-3, > 100 µM (inactive); in the assay with UACC-257, 23.2 µM (inactive); in the assay with NCI-H226 it was 27.4 µM (inactive); in the assay with HCC 2998, 20.6 µM (inactive). Moreover, the GI50 in the assay on RXF 393 is 11.3 µM (inactive); in the assay with EKVX, 29.2 µM (inactive); in the assay on SK-MEL-2, 18.8 µM (inactive); in the assay with SK-MEL-28 it was 17.8 µM (inactive); in the assay on HOP-18, 30.5 µM (inactive); in the assay on OVCAR-8 it was 18.6 µM (inactive). Also, the GI50 in the assay on COLO 205 is 19.6 µM (inactive); in the assay on HL-60, 18.8 µM (inactive); with HCT-116, 23.1 µM (inactive); with SW-620, 17.7 µM (inactive).

For `NNC(=O)CNC(=O)c1ccc(Cl)cc1Cl`, the GI50 with ACHN, in the assay on NCI-H460, in the assay with SK-OV-3, in the assay with UACC-257, in the assay on NCI-H226 and in the assay on HCC 2998 was > 100 µM (inactive) throughout. The GI50 with EKVX, in the assay with OVCAR-5, in the assay on SK-MEL-28, in the assay on HOP-18, with OVCAR-8 and with COLO 205 was > 100 µM (inactive) each time. The GI50 with HL-60 was > 100 µM (inactive); in the assay on HCT-116, 39.4 µM (inactive); in the assay on SW-620, 15.8 µM (inactive).

Regarding `CC(=O)OC1CC2Oc3ccc(C)cc3C(C)(O2)C1=O` (configuration not stated), the GI50 with ACHN, with NCI-H460, with SK-OV-3, in the assay on UACC-257, with NCI-H226 and with RXF 393 was > 100 µM (inactive) in each case. Further, the GI50 in the assay with EKVX, in the assay on SK-MEL-28, in the assay with HOP-18, in the assay with OVCAR-8, with COLO 205 and in the assay with HL-60 was > 100 µM (inactive) each time. For the same compound, the GI50 with HCT-116 and in the assay with SW-620 was > 100 µM (inactive) throughout.

`COC1CCC(OC)C(C2(C3CC(OC)CCC3OC)OC(=O)c3ccccc32)C1` (configuration not stated): the GI50 in the assay with ACHN is > 100 µM (inactive); with NCI-H460, 86.3 µM (inactive); in the assay on SK-OV-3, > 100 µM (inactive); with UACC-257 it was > 100 µM (inactive); with NCI-H226, 86.7 µM (inactive); with HCC 2998, 66.4 µM (inactive). In addition, the GI50 in the assay with RXF 393 is > 100 µM (inactive); in the assay on EKVX, 60.8 µM (inactive); in the assay on OVCAR-5, > 100 µM (inactive); in the assay on SK-MEL-2 it was 93.8 µM (inactive); in the assay on HOP-18, > 100 µM (inactive); in the assay on OVCAR-8 it was > 100 µM (inactive). The GI50 in the assay on COLO 205 was 28.8 µM (inactive); in the assay with HL-60 it was 13.7 µM (inactive); with HCT-116, > 100 µM (inactive); in the assay with SW-620, 59.2 µM (inactive).

Take `Cc1ccc(/C=C/C(=O)c2c([O-])on[n+]2-c2ccccc2)cc1`: the GI50 in the assay on ACHN is 1.87 µM (inactive); with NCI-H460, 2.44 µM (inactive); with SK-OV-3, 8.09 µM (inactive); in the assay on UACC-257, 3.64 µM (inactive); in the assay with NCI-H226, 3.79 µM (inactive); in the assay on HCC 2998, 2.01 µM (inactive). Moreover, the GI50 with RXF 393 was 1.94 µM (inactive); in the assay on NCI/ADR-RES, 2400 nM (inactive); in the assay on EKVX it was 3.6 µM (inactive); with OVCAR-5 it was 4.17 µM (inactive); in the assay with SK-MEL-2, 2.11 µM (inactive); in the assay with MDA-MB-435, 2300 nM (inactive). Further, the GI50 with SK-MEL-28 was 2.26 µM (inactive); in the assay with MDA-N, 2920 nM (inactive); in the assay on OVCAR-8, 1.85 µM (inactive); in the assay with COLO 205 it was 2.69 µM (inactive); with HL-60, 1.47 µM (inactive); in the assay on HCT-116, 1.84 µM (inactive). The GI50 with SW-620 was 2.46 µM (inactive).

Take `O=c1cc(-c2ccccc2)oc2cc(OCC(O)COc3ccc4c(=O)cc(-c5ccccc5)oc4c3)ccc12`: the GI50 is 40.3 µM (inactive) in the assay with NCI-H460; 16.8 µM (inactive) with SK-OV-3; > 100 µM (inactive) in the assay with UACC-257; > 100 µM (inactive) in the assay on EKVX; > 100 µM (inactive) in the assay with OVCAR-5; 21.5 µM (inactive) with SK-MEL-2. The GI50 in the assay with SK-MEL-28 is > 100 µM (inactive); in the assay with HOP-18 it was > 100 µM (inactive); in the assay on OVCAR-8, 19.1 µM (inactive); in the assay on HL-60, 23 µM (inactive); in the assay on HCT-116, 42.5 µM (inactive); in the assay with SW-620 it was 61.2 µM (inactive).

As for `c1ccc2c(C3NCCc4nc[nH]c43)cccc2c1` (configuration not stated), the GI50 in the assay on ACHN, with NCI-H460, with SK-OV-3, with UACC-257, in the assay with NCI-H226 and in the assay with HCC 2998 was > 100 µM (inactive) throughout. Also, the GI50 in the assay with RXF 393, in the assay on OVCAR-5, in the assay on SK-MEL-2, in the assay with SK-MEL-28, in the assay with HOP-18 and with OVCAR-8 was > 100 µM (inactive) in each case. Besides, the GI50 in the assay with COLO 205, in the assay on HCT-116 and in the assay with SW-620 was > 100 µM (inactive) in each case.

As for `CCCCSC1CCSc2c1ccc1ccccc21` (configuration not stated), the GI50 in the assay with SK-OV-3 was > 100 µM (inactive); in the assay on HCC 2998, 65.9 µM (inactive); with RXF 393, 52.8 µM (inactive); in the assay with OVCAR-5 it was 42 µM (inactive); with SK-MEL-2 it was > 100 µM (inactive); in the assay on SK-MEL-28 it was > 100 µM (inactive). For the same compound, the GI50 in the assay on HOP-18 is > 100 µM (inactive); in the assay with OVCAR-8, > 100 µM (inactive); in the assay with COLO 205, > 100 µM (inactive); in the assay on HL-60, 93.1 µM (inactive); in the assay with HCT-116 it was 53 µM (inactive).

As to `CC(C)C(/N=C1\CC2CCC1(C(=O)Nc1ccccc1O)C2(C)C)c1ccccc1` (configuration not stated), the GI50 with ACHN is > 10 µM (inactive); in the assay with NCI-H460 it was 7.67 µM (inactive); with SK-OV-3 it was > 10 µM (inactive); in the assay with UACC-257 it was 5.89 µM (inactive); in the assay on NCI-H226, > 10 µM (inactive); in the assay with HCC 2998, > 10 µM (inactive). In addition, the GI50 is 7.43 µM (inactive) with EKVX; > 10 µM (inactive) with OVCAR-5; > 10 µM (inactive) with SK-MEL-2; > 10 µM (inactive) with SK-MEL-28; > 10 µM (inactive) with HOP-18; > 10 µM (inactive) in the assay on OVCAR-8. Moreover, the GI50 was > 10 µM (inactive) in the assay with COLO 205, 2.4 µM (inactive) in the assay on HL-60, 6.61 µM (inactive) with HCT-116 and 4.8 µM (inactive) in the assay with SW-620.

Take `C=CCCCCn1c2ccccc2c2c(C)c3c[n+](C)ccc3c(C)c21`: the GI50 in the assay on ACHN is 2.68 µM (inactive); in the assay on NCI-H460, 0.356 µM (active); in the assay on SK-OV-3 it was 1.2 µM (inactive); with UACC-257, 0.391 µM (active); with NCI-H226, 0.212 µM (active); with RXF 393, 0.684 µM (active). Besides, the GI50 in the assay on OVCAR-5 was 1.07 µM (active); in the assay on SK-MEL-2 it was 0.396 µM (active); in the assay with SK-MEL-28, 0.426 µM (active); in the assay on HOP-18, 0.0912 µM (active); in the assay on OVCAR-8 it was 0.197 µM (active); with COLO 205, 0.25 µM (active). In addition, the GI50 with HL-60 was 0.171 µM (active); in the assay on HCT-116 it was 0.244 µM (active); in the assay with SW-620, 0.296 µM (active).

With `C[N+](C)(C)CCC(=O)CC[N+](C)(C)C`, the GI50 with ACHN is 17 µM (inactive); in the assay with NCI-H460, 28.2 µM (inactive); in the assay on SK-OV-3, > 100 µM (inactive); with UACC-257 it was 17.6 µM (inactive); with HCC 2998, 16.2 µM (inactive); in the assay on RXF 393 it was 21.3 µM (inactive). Moreover, the GI50 was 55.3 µM (inactive) with EKVX; 21.5 µM (inactive) in the assay with SK-MEL-2; 21.6 µM (inactive) in the assay on SK-MEL-28; 17.1 µM (inactive) with HOP-18; 19.8 µM (inactive) with OVCAR-8; 16.4 µM (inactive) in the assay on COLO 205. In addition, the GI50 is 4.09 µM (inactive) with HL-60, 18.4 µM (inactive) in the assay with HCT-116 and 16.1 µM (inactive) in the assay with SW-620.

In the case of `CC12CCC(=O)N1c1cc([N+](=O)[O-])ccc1N2` (configuration not stated), the GI50 in the assay with ACHN, in the assay with SK-OV-3, in the assay on UACC-257, in the assay on NCI-H226, in the assay on RXF 393 and in the assay with EKVX was > 100 µM (inactive) throughout. For the same compound, the GI50 with SK-MEL-2, with SK-MEL-28, with HOP-18, in the assay on OVCAR-8, in the assay with COLO 205 and in the assay on HL-60 was > 100 µM (inactive) in each case. The GI50 with HCT-116 and in the assay on SW-620 was > 100 µM (inactive) throughout.

With `C[C@@H]1O[C@@H](O[C@H]2CC[C@]3(C=O)[C@H]4CC[C@]5(C)[C@@H](C6=CC(=O)OC6)CC[C@]5(O)[C@@H]4CC[C@]3(O)C2)[C@H](O)[C@H](O)[C@H]1O` [CONVALLATOXIN], the GI50 with ACHN was 9.73e-06 µM (active); in the assay with NCI-H460, 8.47e-06 µM (active); in the assay with SK-OV-3, 4.37e-05 µM (active); in the assay on UACC-257 it was 6.67e-05 µM (active); in the assay with NCI-H226 it was 5.35e-05 µM (active); in the assay with HCC 2998 it was < 0.01 µM (active). Further, the GI50 was 1.67e-05 µM (active) with RXF 393; 0.0126 nM (active) with NCI/ADR-RES; 9.51e-06 µM (active) in the assay on EKVX; 4.24e-05 µM (active) in the assay with OVCAR-5; 7.1e-05 µM (active) with SK-MEL-2; 0.0423 nM (active) in the assay on MDA-MB-435. Further, the GI50 in the assay with SK-MEL-28 is 6.4e-05 µM (active); in the assay with MDA-N, 0.043 nM (active); in the assay with OVCAR-8 it was 2.94e-05 µM (active); with COLO 205, 9.35e-05 µM (active); with HL-60, 3.42e-05 µM (active); with HCT-116, < 0.01 µM (active). Further, in the assay with SW-620, the GI50 was 3.93e-05 µM (active).

The record behind these values is ChEMBL document CHEMBL1201862, “PubChem BioAssay data set” (2004).
